ChEMBL document CHEMBL1124997, “Mechanism and inhibition of cytochrome P-450 aromatase” (J Med Chem, 1990)

T1: Aromatase (Rattus norvegicus, UniProt P22443)
T1 sequence (P22443 whole entry): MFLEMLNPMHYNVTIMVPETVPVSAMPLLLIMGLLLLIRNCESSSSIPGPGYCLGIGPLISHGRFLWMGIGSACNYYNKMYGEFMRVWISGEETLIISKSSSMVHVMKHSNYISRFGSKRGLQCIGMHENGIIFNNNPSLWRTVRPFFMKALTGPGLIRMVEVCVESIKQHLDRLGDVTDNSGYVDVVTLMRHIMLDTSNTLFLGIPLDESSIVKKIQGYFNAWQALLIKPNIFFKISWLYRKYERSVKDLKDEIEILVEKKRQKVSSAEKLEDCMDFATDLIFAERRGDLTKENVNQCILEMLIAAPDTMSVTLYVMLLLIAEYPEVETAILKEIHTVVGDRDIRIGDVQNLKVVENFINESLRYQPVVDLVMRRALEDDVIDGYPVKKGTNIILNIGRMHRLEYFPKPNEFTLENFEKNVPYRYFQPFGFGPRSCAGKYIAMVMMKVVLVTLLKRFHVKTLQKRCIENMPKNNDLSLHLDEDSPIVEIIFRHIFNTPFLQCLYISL

T2: Aromatase (Homo sapiens, UniProt P11511)
T2 sequence (P11511 whole entry): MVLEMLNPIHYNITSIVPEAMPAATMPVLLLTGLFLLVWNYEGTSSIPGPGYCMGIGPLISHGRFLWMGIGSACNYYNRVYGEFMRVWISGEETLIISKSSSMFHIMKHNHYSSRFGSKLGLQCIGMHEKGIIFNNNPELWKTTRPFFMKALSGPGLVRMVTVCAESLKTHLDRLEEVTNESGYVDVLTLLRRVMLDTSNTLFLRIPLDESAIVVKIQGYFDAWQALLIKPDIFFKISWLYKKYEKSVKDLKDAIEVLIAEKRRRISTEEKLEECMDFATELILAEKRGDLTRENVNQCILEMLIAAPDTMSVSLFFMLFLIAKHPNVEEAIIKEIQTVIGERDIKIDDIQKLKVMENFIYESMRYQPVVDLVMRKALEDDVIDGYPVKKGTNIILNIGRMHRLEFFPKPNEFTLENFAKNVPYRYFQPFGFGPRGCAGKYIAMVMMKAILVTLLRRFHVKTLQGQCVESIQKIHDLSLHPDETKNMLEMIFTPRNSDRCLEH

B1: Aromatase (Homo sapiens) (protein)
chain: T2 sequence (P11511 whole entry)

Biological target: T1, Aromatase

`Cn1nnc2ccc(C(c3ccc(Cl)cc3)n3cncn3)cc21` (stereo not drawn) [rac-VOROZOLE] showed an IC50 of 3 nM.

Biological target: T2, Aromatase

Compared with `C[C@]12C=CC(=O)C=C1C=C[C@@H]1[C@@H]2CC[C@]2(C)C(=O)CC[C@@H]12`, `C[C@]12C=CC(=O)C=C1CCC1C2CC[C@]2(C)OC(=O)CCC12` (stereo partly specified) is 190-fold higher in Ki: 180 nM for the first, 35000 nM for the second. The first binds more tightly here.

Compared with `CCC[C@]12CCC(=O)C=C1CCC1C2CC[C@]2(C)C(=O)CCC12` (stereo partly specified), `CC[C@]12CCC(=O)C=C1CCC1C2CC[C@]2(C)C(=O)CCC12` (stereo partly specified) is 330-fold lower in Ki: 3000 nM for the first, 9 nM for the second.

First: C[C@]12CCC3C(CCC4=CC(=O)CC[C@@]43C3CS3)C1CCC2=O (stereo partly specified)
Second: C[C@]12CCC3C(CCC4=CC(=O)CC[C@]43C3CS3)C1CCC2=O (stereo partly specified)
The Ki of the first is 75-fold higher: 75 nM for the first, 1 nM for the second.

First: C=C[C@]12CCC(=O)C=C1CCC1C2CC[C@]2(C)C(=O)CCC12 (stereo partly specified)
Second: C/C=C/[C@]12CCC(=O)C=C1CCC1C2CC[C@]2(C)C(=O)CCC12 (stereo partly specified)
The Ki of the first is 19-fold lower: 3 nM for the first, 56 nM for the second. The first binds more tightly here.

`C[C@]12CCC(=O)C(O)=C1CC[C@@H]1[C@@H]2CC[C@]2(C)C(=O)CC[C@@H]12` [FORMESTANE] and `C[C@]12CCC(=O)C(N)=C1CCC1C2CC[C@]2(C)C(=O)CCC12` (stereo partly specified) are within 1.5-fold of each other in Ki: 50 nM for the first, 37 nM for the second.

Compared with `C[C@]12CCC(=O)C=C1[C@H](Br)CC1C2CC[C@@]2(C)C1CC[C@@H]2OC(=O)CBr` (stereo partly specified), `CSC[C@]12CCC(=O)C=C1CCC1C2CC[C@]2(C)C(=O)CCC12` (stereo partly specified) is 25000-fold lower in Ki: 25000 nM for the first, 1 nM for the second.

Going from `C[C@@]12CCCC1C1CCC3=CC(=O)C=C[C@]3(C)C1CC2` (stereo partly specified) to `C=C1C=C2CCC3C(CC[C@]4(C)C(=O)CCC34)[C@@]2(C)CC1` (stereo partly specified), the Ki falls from 1100 nM to 4.7 nM (230-fold). The second binds more tightly here.

Going from `C[C@]12CCC3C(CCC4=CC(=O)CC[C@@]43C(F)F)C1CCC2=O` (stereo partly specified) to `CC1(C)C[C@@]2(C)C(=CC1=O)CCC1C2CC[C@]2(C)C(=O)CCC12` (stereo partly specified), the Ki rises from 1 nM to 2.3 nM (2.3-fold). The first binds more tightly here.

Compared with `O=c1cc(-c2ccccc2)oc2c1ccc1ccc(O)cc12`, `C[C@]12CCC(=O)C=C1C[C@@H](Sc1ccc(NC(=O)CBr)cc1)C1C2CC[C@]2(C)C(=O)CCC12` (stereo partly specified) is 6600-fold higher in Ki: 5 nM for the first, 33000 nM for the second. The first binds more tightly here.

`C[C@]12CCC(=O)C=C1C[C@@H](Sc1ccc(I)cc1)C1C2CC[C@]2(C)C(=O)CCC12` (stereo partly specified) gave a Ki of 12 nM.

Substrate: C[C@]12CCC(=O)C=C1CC[C@@H]1[C@@H]2CC[C@]2(C)C(=O)CC[C@@H]12
Experiment: (§1) Binding affinity for Cytochrome P450 19A1
Parameters: species or system Homo sapiens

B1 showed a Km of 0.03 µM.

Substrate: C[C@]12CCC(=O)C=C1CCC1C2CC[C@@]2(C)C1C[C@@H](O)[C@@H]2O
Experiment: as §1
Parameters: species or system Homo sapiens

B1 gave a Km of 58 µM.

Biological target: T2, Aromatase
Experiment: Time-dependent irreversible inactivation of human placental Cytochrome P450 19A1

`C[C@]12CCC(=O)C=C1[C@H](Br)CC1C2CC[C@@]2(C)C1CC[C@@H]2OC(=O)CBr` (stereo partly specified) and `C[C@]12CCC3C(CCC4=CC(=O)CC[C@@]43C(F)F)C1CCC2=O` (stereo partly specified) are within 1.5-fold of each other in kinact: 0.000457 s⁻¹ for the first, 0.000383 s⁻¹ for the second.

`C[C@]12CCC(=O)C=C1C[C@@H](Sc1ccc(N=[N+]=[N-])cc1)C1C2CC[C@]2(C)C(=O)CCC12` (stereo partly specified) and `C[C@]12CCC(=O)C=C1C[C@@H](Sc1ccc(NC(=O)CBr)cc1)C1C2CC[C@]2(C)C(=O)CCC12` (stereo partly specified) are within 1.5-fold of each other in kinact: 0.00166 s⁻¹ for the first, 0.00247 s⁻¹ for the second.

Substrate: C[C@]12CC[C@H]3[C@@H](CCC4=CC(=O)CC[C@@]43C)[C@@H]1CC[C@@H]2O
Experiment: (§2) Km for Cytochrome P450 19A1

B1 gave a Km of 0.21 µM.

Substrate: C[C@]12CCC(=O)C=C1CC[C@@H]1[C@@H]2CC[C@]2(C)C(=O)CC[C@@H]12
Experiment: as §2

B1 was tested, and the Km was 0.06 µM.

Biological target: T2, Aromatase
Experiment: as §1

Compared with `C[C@]12CCC3C(CCC4=C(O)C(=O)CC[C@@]43C(F)F)C1CCC2=O` (stereo partly specified), `Clc1ccc(COC(Cn2cccc2)c2ccc(Cl)cc2Cl)cc1` (stereo unspecified) is 110-fold lower in IC50: 3300 nM for the first, 30 nM for the second.

Biological target: T1, Aromatase
Experiment: as §1

For `Clc1ccc(C2c3ccc(Cl)cc3-c3ncncc32)cc1` (stereo unspecified), the Ki was 24 nM.
